Consider 12 compounds from ChEMBL document CHEMBL1201862, “PubChem BioAssay data set” (2004).

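Dose response: 5 concentrations. Exposure: 48 h. Format: 96-well plates. Endpoint: linear interpolation; highest concentration if not reached. GI50 marks 50% less growth.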 Activity calls are given as the source filed them. No stated cut-off is given here; in the data, active = GI50 up to about 1.1 µM and inactive = higher. Some results are limits rather than exact numbers.

Some test systems named below: A549; CAKI-1; SR; OVCAR-4; MOLT-4; NCI/ADR-RES; OVCAR-8; HCT-116; MDA-MB-435; OVCAR-5; LOX IMVI; UACC-62; SK-MEL-2; UACC-257; SK-MEL-5; MCF7; COLO 205; DU-145; RPMI-8226; HCC 2998.
What all share (assay): DTP human tumour cell line panel, 48 h

As usually defined, the GI50 is the concentration at which growth is held to half of that of the control. `Cc1ncc(COP(=O)(O)O)c(C)c1O`: the GI50 in the assay with A549, in the assay on CAKI-1, with SR, with OVCAR-4, in the assay on MOLT-4 and with NCI/ADR-RES was > 100 µM (inactive) throughout. Also, the GI50 in the assay with OVCAR-8, with HCT-116, in the assay with MDA-MB-435, in the assay with OVCAR-5, in the assay with LOX IMVI and with UACC-62 was > 100 µM (inactive) each time. The GI50 in the assay on SK-MEL-2, in the assay with UACC-257 and in the assay on SK-MEL-5 was > 100 µM (inactive) throughout.

For the compound `CCOC(=O)c1c(NC(=O)c2ccc(Br)cc2)sc2c1CCCC2`, the GI50 in the assay with A549, in the assay with CAKI-1, in the assay on SR, in the assay with MCF7, in the assay on MOLT-4 and with OVCAR-8 was > 100 µM (inactive) in each case. Moreover, the GI50 in the assay with HCT-116, in the assay on MDA-MB-435, in the assay with OVCAR-5, with COLO 205, with DU-145 and in the assay with RPMI-8226 was > 100 µM (inactive) each time. For the same compound, the GI50 with UACC-62, in the assay on SK-MEL-2, in the assay with UACC-257 and in the assay with SK-MEL-5 was > 100 µM (inactive) in each case.

With `O=C1C(NCCc2cc(Cl)c(O)c(Cl)c2)=CC(=O)c2[nH]cnc21`, the GI50 in the assay on A549 is 33.9 µM (inactive); in the assay with SR, 32.6 µM (inactive); in the assay on MCF7, 26.9 µM (inactive); with MOLT-4 it was 24.3 µM (inactive); with NCI/ADR-RES it was > 100 µM (inactive); in the assay on OVCAR-8 it was 32.2 µM (inactive). The GI50 is 27.1 µM (inactive) with HCT-116; 16.7 µM (inactive) in the assay on MDA-MB-435; 88.7 µM (inactive) with OVCAR-5; 21.2 µM (inactive) in the assay with COLO 205; 46.7 µM (inactive) with RPMI-8226; 35.2 µM (inactive) in the assay with LOX IMVI. Further, the GI50 with UACC-62 is 18.8 µM (inactive); with SK-MEL-2, 19.2 µM (inactive); in the assay with UACC-257, 26 µM (inactive); in the assay with HCC 2998, 38.8 µM (inactive); with SK-MEL-5 it was 17.3 µM (inactive).

As to `CC(=O)/C=C(/C=N/O)c1ccccc1`, the GI50 in the assay on A549, in the assay with CAKI-1, in the assay on SR, in the assay on OVCAR-4, with MCF7 and with MOLT-4 was > 100 µM (inactive) throughout. The GI50 in the assay on NCI/ADR-RES, in the assay on OVCAR-8, in the assay on HCT-116, in the assay on MDA-MB-435, with OVCAR-5 and with COLO 205 was > 100 µM (inactive) each time. Further, the GI50 is > 100 µM (inactive) in the assay on RPMI-8226; > 100 µM (inactive) with LOX IMVI; > 100 µM (inactive) with UACC-62; 56.5 µM (inactive) in the assay on SK-MEL-2; > 100 µM (inactive) with UACC-257; > 100 µM (inactive) in the assay on HCC 2998. Moreover, the GI50 in the assay on SK-MEL-5 was > 100 µM (inactive).

Regarding `O=C(O)c1ccccc1/C=N/N=C1NCCN1`, the GI50 with A549 is > 100 µM (inactive); in the assay on SR, 88.5 µM (inactive); in the assay on OVCAR-4, > 100 µM (inactive); with MCF7, 91.2 µM (inactive); in the assay on MOLT-4, > 100 µM (inactive); with NCI/ADR-RES it was > 100 µM (inactive). Further, the GI50 is > 100 µM (inactive) in the assay with OVCAR-8; > 100 µM (inactive) with HCT-116; > 100 µM (inactive) in the assay with MDA-MB-435; > 100 µM (inactive) in the assay on OVCAR-5; > 100 µM (inactive) in the assay with COLO 205; 39.7 µM (inactive) with RPMI-8226. The GI50 was > 100 µM (inactive) in the assay on LOX IMVI; > 100 µM (inactive) in the assay on UACC-62; 59.6 µM (inactive) with SK-MEL-2; 84.1 µM (inactive) in the assay with UACC-257; > 100 µM (inactive) with HCC 2998; > 100 µM (inactive) in the assay on SK-MEL-5.

In the case of `C=C(NC(=O)C(=C)NC(=O)c1csc(C2=NC3c4csc(n4)C4NC(=O)c5csc(n5)C(C(C)(O)C(C)O)NC(=O)C5CSC(=N5)/C(=C/C)NC(=O)C(C(C)O)NC(=O)c5csc(n5)C3(CC2)NC(=O)C(C)NC(=O)C(=C)NC(=O)C(C)NC(=O)C(C(C)CC)NC2C=Cc3c(C(C)O)cc(nc3C2O)C(=O)OC4C)n1)C(N)=O` (centres undefined), the GI50 is 4.57 µM (inactive) with A549; 2.92 µM (inactive) with CAKI-1; 0.302 µM (active) with SR; 19.9 µM (inactive) in the assay with OVCAR-4; > 58.3 µM (inactive) with NCI/ADR-RES; 0.51 µM (active) in the assay on HCT-116. Besides, the GI50 with OVCAR-5 was 11.8 µM (inactive); in the assay on RPMI-8226, 0.644 µM (active); in the assay on LOX IMVI, 1.08 µM (active); in the assay with UACC-62, 1.24 µM (inactive); with SK-MEL-2, 1.65 µM (inactive); with UACC-257, 1.75 µM (inactive). The GI50 was 6.67 µM (inactive) in the assay with HCC 2998 and 1.34 µM (inactive) with SK-MEL-5.

Consider `N#CCc1nc2cc(C(F)(F)F)ccc2s1`, for which the GI50 in the assay with CAKI-1 is 70.6 µM (inactive); with OVCAR-4 it was 38.6 µM (inactive); with MOLT-4 it was 7.96 µM (inactive); with NCI/ADR-RES, 55.7 µM (inactive); with OVCAR-8, 30.1 µM (inactive); in the assay on HCT-116, 26.7 µM (inactive). The GI50 with MDA-MB-435 is 40.4 µM (inactive); in the assay on OVCAR-5, > 100 µM (inactive); with COLO 205, 34 µM (inactive); in the assay with DU-145, 48.3 µM (inactive); in the assay on RPMI-8226 it was 29.4 µM (inactive); in the assay with LOX IMVI it was 26.4 µM (inactive). Also, the results for the GI50 in the assay with UACC-257 and in the assay on SK-MEL-5 were 34.4 µM (inactive) and 50.7 µM (inactive), respectively.

For `COc1ccc2nc3ccc(OC)cc3c(SCC3CO3)c2c1` (centres undefined), the GI50 is 24.2 µM (inactive) with A549; 5.79 µM (inactive) in the assay on CAKI-1; 6.89 µM (inactive) in the assay with SR; 19.5 µM (inactive) with OVCAR-4; 11.2 µM (inactive) in the assay with MCF7; 17.1 µM (inactive) in the assay with NCI/ADR-RES. The GI50 was 11 µM (inactive) in the assay with OVCAR-8; 10.5 µM (inactive) in the assay with HCT-116; 18.2 µM (inactive) in the assay with MDA-MB-435; 24.9 µM (inactive) in the assay with OVCAR-5; 19 µM (inactive) with COLO 205; 22.7 µM (inactive) in the assay on RPMI-8226. Besides, the GI50 was 15.4 µM (inactive) in the assay on LOX IMVI; 14.2 µM (inactive) in the assay on SK-MEL-2; 15.5 µM (inactive) with UACC-257; 15.6 µM (inactive) in the assay on HCC 2998; 15.8 µM (inactive) in the assay with SK-MEL-5.

In the case of `C[C@H]1CC(=O)C2=CCCC3(SCCCS3)[C@@H]2[C@H]1CO`, the GI50 was > 100 µM (inactive) with A549; > 100 µM (inactive) in the assay with CAKI-1; 54.3 µM (inactive) in the assay on SR; > 100 µM (inactive) in the assay on OVCAR-4; 44.9 µM (inactive) with MOLT-4; > 100 µM (inactive) with OVCAR-8. The GI50 in the assay with HCT-116 is 89.5 µM (inactive); in the assay on OVCAR-5, > 100 µM (inactive); with COLO 205, > 100 µM (inactive); in the assay with RPMI-8226, 70.8 µM (inactive); with LOX IMVI, > 100 µM (inactive); in the assay on UACC-62 it was > 100 µM (inactive). Moreover, the GI50 with SK-MEL-2, in the assay on UACC-257, in the assay on HCC 2998 and in the assay on SK-MEL-5 was > 100 µM (inactive) throughout.

In the case of `N#C/C(=C\c1ccc2ccccc2c1)C(=O)c1ccccc1`, the GI50 in the assay with A549 is > 100 µM (inactive); in the assay on CAKI-1, > 100 µM (inactive); in the assay with SR it was 37.8 µM (inactive); in the assay with OVCAR-4, > 100 µM (inactive); with MCF7, > 100 µM (inactive); with MOLT-4 it was 23.5 µM (inactive). For the same compound, the GI50 was 33.7 µM (inactive) in the assay on OVCAR-8; > 61.4 µM (inactive) in the assay with HCT-116; 19.4 µM (inactive) in the assay with MDA-MB-435; > 100 µM (inactive) with OVCAR-5; > 100 µM (inactive) in the assay with COLO 205; > 100 µM (inactive) in the assay on DU-145. For the same compound, the GI50 in the assay on RPMI-8226 is 34.2 µM (inactive); in the assay on LOX IMVI it was 26.1 µM (inactive); in the assay on UACC-62, > 57 µM (inactive); with SK-MEL-2, > 100 µM (inactive); in the assay with UACC-257 it was 82 µM (inactive); with HCC 2998, > 100 µM (inactive). Further, in the assay on SK-MEL-5, the GI50 was > 63 µM (inactive).

As to `N#CCCC(CC#N)N1CCN(C(CC#N)CCC#N)CC1` (centres undefined), the GI50 with A549, in the assay with CAKI-1, in the assay with SR, with OVCAR-4, in the assay with MCF7 and in the assay with MOLT-4 was > 100 µM (inactive) throughout. Also, the GI50 in the assay on NCI/ADR-RES, with OVCAR-8, in the assay on HCT-116, in the assay with OVCAR-5, in the assay with COLO 205 and in the assay with DU-145 was > 100 µM (inactive) in each case. For the same compound, the GI50 in the assay with RPMI-8226, in the assay on UACC-62, in the assay on UACC-257, with HCC 2998 and in the assay with SK-MEL-5 was > 100 µM (inactive) throughout.

Consider `CCC(C)(C)c1ccc(OCCCCNC(=O)c2ccc3ccccc3c2O)c(C(C)(C)CC)c1`, for which the GI50 is 27.2 µM (inactive) in the assay with A549; 23 µM (inactive) in the assay with CAKI-1; > 100 µM (inactive) in the assay with SR; > 100 µM (inactive) with OVCAR-4; 28.3 µM (inactive) with MCF7; 16.1 µM (inactive) in the assay with MOLT-4. In addition, the GI50 is 25.4 µM (inactive) in the assay with NCI/ADR-RES; 27.5 µM (inactive) in the assay on OVCAR-8; 17.6 µM (inactive) in the assay on HCT-116; 69.5 µM (inactive) in the assay with OVCAR-5; 14.2 µM (inactive) with COLO 205; 54.7 µM (inactive) in the assay on DU-145. Also, the GI50 with UACC-62 was 16.3 µM (inactive); in the assay on SK-MEL-2, 30.8 µM (inactive); in the assay on UACC-257, 28 µM (inactive); in the assay with HCC 2998, 38.3 µM (inactive); with SK-MEL-5, 19.3 µM (inactive).
